How the values were obtained:
human GPR84 receptor = target: T1, human GPR84 receptor (Homo sapiens, UniProt Q9NQS5); assay: Gαi biosensor BRET assay in transfected HEK293 cells (antagonism of GPR84 agonist ZQ-16); type: cell-based; details: 200 nmol/L ZQ-16; for inhibition at 10 µM / inhibition at 2 µM: HEK293, single concentration; for inhibition at 10 µM: code F = 10 μM; for inhibition at 2 µM: code A = 2 μM
T1 construct: host or cells: HEK293 cells, transient transfection
Excerpt: Background—The following assays can be used for determination of GPR84 activation in living HEK293 cells. The Gαi BRET biosensor (Gagnon et al., 2018; Gales et al., 2006. Nat Struct Mol Biol. 13, 778-86; Saulieres et al., 2012. Nat Chem Biol. 8, 622-30) allows to directly monitor GPR84-mediated activation of Gαi. The Gαi biosensor consists of a Rluc8-tagged Gαi2 subunit, a GFP10-tagged Gγ2 subunit, and an untagged Gβ1. Agonist stimulation and GPR84 activation triggers a physical separation between the RLuc8-Gαi donor and the GFP10-Gγ2 acceptor, resulting in a decrease in BRET signal whose amplitude is correlated to ligand efficacy (Gales et al., 2006). Moreover, signaling functions of GPCRs are tightly regulated by endocytosis, the targeting of receptors to endosomes and their sorting to lysosomes or recycling to the plasma membrane. The early endosomes (EEs) trafficking assay (Namkung et al., 2016. Nat Commun. 7, 12178) uses Rluc8-tagged GPR84 and Renilla GFP (rGFP) attached to the FYVE domain from human endofin/zinc finger FYVE domain-containing protein 16, which binds phosphatidylinositol 3-phosphate in EEs. Agonist stimulation of GPR84-Rluc8 leads to trafficking of the receptor to EEs, and ensuing increase of the donor concentration relative to the rGFP-FYVE acceptor anchored in the same cellular compartment, and thus results in an increase in BRET signal.
Plasmids—The cDNA clones for human GPR84 receptor, human Gαi2, Gβ1, and Gγ2 were obtained from the cDNA Resource Center (www.cdna.org). GFP10 (F64L, S147P, S202F and H231L variant of Aequorea victoria Green Fluorescent Protein) gBlocks gene fragments (Integrated DNA Technologies, IA) and linker were inserted in frame at the N-terminus of human Gγ2. Rluc8 (A55T, C124A, S130A, K136R, A143M, M185V, M253L, and S287L variant of the Renilla reniformis luciferase) gBlocks gene fragment was inserted with linkers in frame in between residues 91 and 92 of Gα2 or at the C-terminus of GPR84. The FYVE domain from human endofin (residues Q739 to K806) attached in frame at the C terminus of a humanized Renilla GFP (rGFP), were synthesized as gBlocks gene fragments.
Bioluminescence Resonance Energy Transfer (BRET) Measurement—HEK293 cells were transfected with GPR84-Rluc8 and rGFP-FYVE for the EEs trafficking biosensor or with GPR84, Gαi2-Rluc8, GFP10-Gγ2, and Gβ1 for the Gαi biosensor. The following day, transiently transfected cells were seeded in 96-well white clear bottom microplates coated with poly-D-lysine and left in culture for 24 hours. Cells were washed once with Tyrode's buffer (140 mmol/L NaCl, 1 mmol/L CaCl2, 2.7 mmol/L KCl, 0.49 mmol/L MgCl2, 0.37 mmol/L NaH2PO4, 5.6 mmol/L glucose, 12 mmol/L NaHCO3, and 25 mmol/L HEPES, pH 7.5) before performing assays in Tyrode's buffer. Test compounds were incubated with cells for 5 (Gui) or 15 (EEs) minutes at 37° C. before addition of 200 nmol/L of the GPR84 agonist ZQ-16 (2-(Hexylthio)-6-hydroxy-4(3H)-pyrimidinone) for 5 minutes at room temperature (Gui) or 30 minutes at 37° C. (EEs). The Rluc8 substrate coelenterazine 400A (Prolume, Lakeside, AZ) was added at a final concentration of 5 μmol/L and BRET readings were collected using an Infinite M1000 microplate reader (Tecan, Morrisville, NC). BRET^2 readings between Rluc8 and GFP10 or rGFP were collected by sequential integration of the signals detected in the 370 to 450 nm (Rluc8) and 510 to 540 nm (GFP10, rGFP) windows. The BRET signal was calculated as the ratio of light emitted by acceptor (GFP10, rGFP) over the light emitted by donor (Rluc8). The values were corrected to net BRET by subtracting the background BRET signal obtained in cells transfected with Rluc8 constructs alone. Ligand-promoted net BRET values were calculated by subtracting vehicle-induced net BRET from ligand-induced net BRET.

[1] = tested on: dextran sodium sulfate-induced chronic inflammatory bowel disease model; details: once-daily doses of 3 and 10 mg/kg; mouse; cited from earlier work

T1 sequence (Q9NQS5 whole entry): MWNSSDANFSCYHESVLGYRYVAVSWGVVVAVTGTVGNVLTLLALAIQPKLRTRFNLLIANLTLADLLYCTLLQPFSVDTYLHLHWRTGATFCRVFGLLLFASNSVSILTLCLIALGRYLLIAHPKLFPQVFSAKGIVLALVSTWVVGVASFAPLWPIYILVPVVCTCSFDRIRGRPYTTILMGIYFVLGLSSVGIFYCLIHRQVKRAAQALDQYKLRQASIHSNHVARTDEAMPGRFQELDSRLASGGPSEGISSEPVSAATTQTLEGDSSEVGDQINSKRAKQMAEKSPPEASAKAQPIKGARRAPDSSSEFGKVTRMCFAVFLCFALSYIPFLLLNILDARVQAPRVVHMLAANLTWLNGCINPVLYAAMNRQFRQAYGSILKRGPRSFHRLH

Compound	IC50 (human GPR84 receptor)	inhibition at 10 µM (human GPR84 receptor)	other results
Cc1ccc(C#CC2CC2)c(F)c1N(C)C(=O)c1cn(CC2OCC3(CC3)CO2)nn1 [Compound I-37]	≤ 300 nM	> 75%	
CN(C(=O)c1cn(CC2OCC3(CC3)CO2)nn1)c1ccc(C#CC2CC2)cc1Br [Compound I-38]	≤ 300 nM		inhibition at 2 µM (human GPR84 receptor): > 75%
Cc1cc(C#CC2CC2)ccc1NCc1cn(CC2OCC3(CC3)CO2)nn1 [Compound I-39]		25 to 50%	
Cc1cc(C#CC2CC2)ccc1N(C)Cc1cn(CC2OCC3(CC3)CO2)nn1 [Compound I-40]		> 75%	
Cc1cc(C#CC2CC2)cc(C)c1NC(=O)c1cn(CC2OCC3(CC3)CO2)nn1 [Compound I-41]		≤ 25%	
O=C(Nc1c(F)cc(C#CC2CC2)cc1F)c1cn(CC2OCC3(CC3)CO2)nn1 [Compound I-42]		≤ 25%	
CN(C(=O)c1cn(CC2OCC3(CC3)CO2)nn1)c1c(F)cc(C#CC2CC2)cc1F [Compound I-43]	≤ 300 nM		inhibition at 2 µM (human GPR84 receptor): > 75%
CN(C(=O)c1cn(CC2OCC3(CC3)CO2)nn1)c1cc(C#CC2CC2)ccc1Br [Compound I-44]	300 to 1000 nM	> 75%	
O=C(Nc1cc(C#CC2CC2)ccc1C1CC1)c1cn(CC2OCC3(CC3)CO2)nn1 [Compound I-45]		≤ 25%	
Cc1cc(C#CC2CC2)ccc1OC(=O)c1cn(CC2OCC3(CC3)CO2)nn1 [Compound I-46]		25 to 50%	
CN(C(=O)c1cn(CC2OCC3(CC3)CO2)nn1)c1cc(C#CC2CC2)ccc1C1CC1 [Compound I-47]	300 to 1000 nM	> 75%	
Cc1ccc(C#CC2CC2)c2c1N(C(=O)c1cn(CC3OCC4(CC4)CO3)nn1)CCC2 [Compound I-48]		> 75%	
CN(C(=O)c1cn(CC2OCC3(CC3)CO2)nn1)c1cc(C#CC2CC2)ccc1O [Compound I-49]		25 to 50%	
Cc1ccc(N(C)C(=O)c2cn(CC3OCC4(CC4)CO3)nn2)nc1C#CC1CC1 [Compound I-50]		≤ 25%	
CN(Cc1ccc(C#CC2CC2)cc1C1CC1)c1cn(CC2OCC3(CC3)CO2)nn1 [Compound I-51]		> 75%	
Cc1cc(C#CC2CC2)cc2c1C(N(C)c1cn(CC3OCC4(CC4)CO3)nn1)CC2 (stereo not shown) [Compound I-53]		25 to 50%	
Cc1ccc(C#CC2CC2)cc1N(C)S(=O)(=O)c1cn(CC2OCC3(CC3)CO2)nn1 [Compound I-55]		> 75%	
Cc1cc(C#CC2CC2)ccc1N(C)S(=O)(=O)c1cn(CC2OCC3(CC3)CO2)nn1 [Compound I-56]		> 75%	
CN(C(=O)c1cn(CC2OCC3(CC3)CO2)cn1)c1ccc(C#CC2CC2)cc1F [Compound I-59]	≤ 300 nM		inhibition at 2 µM (human GPR84 receptor): > 75%
Cc1cc(C#CC2CC2)cc(C)c1N(C)C(=O)c1cn(CC2OCC3(CC3)CO2)nn1 [Compound I-60]	300 to 1000 nM	> 75%	
Cc1c(N(C)C(=O)c2ccc(C#CC3CC3)cc2)nnn1CC1OCC2(CC2)CO1 [Compound I-61]		50 to 75%	
Cc1c(NC(=O)c2ccc(C#CC3CC3)cc2)nnn1CC1OCC2(CC2)CO1 [Compound I-62]		≤ 25%	
Cc1c(N(C)C(=O)c2cccc(C#CC3CC3)c2)nnn1CC1OCC2(CC2)CO1 [Compound I-63]		≤ 25%	
Cc1c(NC(=O)c2cccc(C#CC3CC3)c2)nnn1CC1OCC2(CC2)CO1 [Compound I-64]		≤ 25%	

Compound	IC50 (human GPR84 receptor)	inhibition at 10 µM (human GPR84 receptor)	other results
Cc1cc(C#CC2CC2)c2c(c1)CCC2N(C)c1cn(CC2OCC3(CC3)CO2)nn1 (stereo not shown) [Compound I-81]			inhibition at 2 µM (human GPR84 receptor): ≤ 25%
CN(c1ccc(C#CC2CC2)cc1)c1cn(CC2OCC(C)(C)CO2)nn1 [Compound I-82]		≤ 25%	
Cc1cc(C#CC2CC2)ccc1N(C(=O)c1cn(CC2OCC3(CC3)CO2)nn1)C1CC1 [Compound I-83]	≤ 300 nM		inhibition at 2 µM (human GPR84 receptor): > 75%
Cc1cc(C#CC2CC2)ccc1N(C(=O)c1cn(CC2OCC3(CC3)CO2)nn1)C(C)C [Compound I-84]	≤ 300 nM		inhibition at 2 µM (human GPR84 receptor): > 75%
Cc1cc(C#CC2CC2)ccc1/N=C(\OC(C)C)c1cn(CC2OCC3(CC3)CO2)nn1 [Compound I-85]		25 to 50%	
Cc1ccc(C#CC2CC2)cc1N(C(=O)c1cn(CC2OCC3(CC3)CO2)nn1)C(C)C [Compound I-86]	≤ 300 nM		inhibition at 2 µM (human GPR84 receptor): > 75%
Cc1ccc(C#CC2CC2)cc1/N=C(\OC(C)C)c1cn(CC2OCC3(CC3)CO2)nn1 [Compound I-87]		> 75%	
O=C(c1cn(CC2OCC3(CC3)CO2)nn1)N(c1cc(C#CC2CC2)ccc1F)C1CC1 [Compound I-90]	≤ 300 nM	> 75%	
O=C(c1cn(CC2OCC3(CC3)CO2)nn1)N(c1ccc(C#CC2CC2)cc1F)C1CC1 [Compound I-91]	≤ 300 nM		inhibition at 2 µM (human GPR84 receptor): > 75%
O=C(c1cn(CC2OCC3(CC3)CO2)nn1)N(c1cc(C#CC2CC2)ccc1Br)C1CC1 [Compound I-92]	300 to 1000 nM		inhibition at 2 µM (human GPR84 receptor): > 75%
O=C(c1cn(CC2OCC3(CC3)CO2)nn1)N(c1ccc(C#CC2CC2)cc1Br)C1CC1 [Compound I-93]	≤ 300 nM		inhibition at 2 µM (human GPR84 receptor): > 75%
CN(C(=O)c1cn(CC2OCC3(CC3)CO2)nn1)c1ccc(C#CC2CC2)cc1Cl [Compound I-94]	≤ 300 nM		inhibition at 2 µM (human GPR84 receptor): > 75%
Cc1cc(C#CC2CC2)ccc1N(C)C1(c2cn(CC3OCC4(CC4)CO3)nn2)COC1 [Compound I-95]		> 75%	
O=C(Nc1cc(C#CC2CC2)ccc1Cl)c1cn(CC2OCC3(CC3)CO2)nn1 [Compound I-96]		≤ 25%	
O=C(Nc1cccc(C#CC2CC2)c1)c1cn(CC2OCC3(CC3)CO2)nn1 [Compound I-97]		≤ 25%	
COc1cc(C#CC2CC2)cc(NC(=O)c2cn(CC3OCC4(CC4)CO3)nn2)c1 [Compound I-98]		≤ 25%	
COc1cc(C#CC2CC2)cc(N(C)C(=O)c2cn(CC3OCC4(CC4)CO3)nn2)c1 [Compound I-99]		25 to 50%	
Cc1cc(F)c(C#CC2CC2)cc1N(C)C(=O)c1cn(CC2OCC3(CC3)CO2)nn1 [Compound I-100]	≤ 300 nM		inhibition at 2 µM (human GPR84 receptor): > 75%
Cc1cc(F)c(C#CC2CC2)cc1NC(=O)c1cn(CC2OCC3(CC3)CO2)nn1 [Compound I-101]		≤ 25%	
CN(C)c1ccc(C#CC2CC2)cc1NC(=O)c1cn(CC2OCC3(CC3)CO2)nn1 [Compound I-102]		≤ 25%	
CCc1ccc(C#CC2CC2)cc1NC(=O)c1cn(CC2OCC3(CC3)CO2)nn1 [Compound I-103]		≤ 25%	
CCc1ccc(C#CC2CC2)cc1N(C)C(=O)c1cn(CC2OCC3(CC3)CO2)nn1 [Compound I-104]	300 to 1000 nM	> 75%	
Cc1cc(C#CC2CC2)ccc1N(C)C(=O)c1cnn(CC2OCC3(CC3)CO2)c1 [Compound I-105]	300 to 1000 nM	> 75%	
O=c1nc(OC[C@@H]2COCCO2)cc2n1CCc1cc(C#CC3CC3)ccc1-2 [GLPG1205]			disease activity index score [1]: reduced; neutrophil infiltration [1]: reduced
